From BindingDB's records for patent US11591342 (Suzhou Sinovent Pharmaceuticals, 2023)

Target: Autotaxin (Homo sapiens, UniProt Q13822)
Assay: Bioactivity Assay
Experimental: Preparation and Treatment. Stock Solution Preparation. A 10 mM DMSO stock solution was formulated for each compound. A 30 mM DMSO stock solution was formulated for positive control HA130. Preservation: The DMSO stock solutions were stored at room temperature in a desiccator for a short period of time or at −20° C. for a long period of time. Preparation All compounds were serially 3-fold diluted in DMSO from 10 μM to the 10th concentration.A 1000× positive control (10 mM, HA130) and a 1000× negative control (100% DMSO) were prepared. The plates were shaken for 5 min. Preparation of 1× Reaction Buffer:>5× reaction buffer and cold water were mixed well in a volume ratio of 1:4. Preparation of 20 U/mL Choline Oxidase Stock Solution:1 tube of choline oxide in a kit was dissolved in 1× reaction buffer. The aliquots were frozen at −20° C. Preparation of 200 U/mL Horseradish Peroxidase (HRP) Stock Solution:1 tube of HRP in a kit was dissolved in 1 mL of 1× reaction buffer. The aliquots were frozen at −20° C. Preparation of 20 mM Amplex Red Reagent (for Detection) Stock Solution Amplex Red reagent and DMSO were equilibrated at room temperature.

Row | IC50 [µM] | SMILES
1 | 0.039 | CCc1nn2ccc(N3CCN(CC(=O)N4CC(O)C4)CC3)nc2c1N(C)c1nc(-c2ccc(F)cc2)c(C#N)s1 [US11591342, Compound S-0041]
2 | 0.648 | CCn1nc2ncc(N3CCN(CC(=O)N4CC(O)C4)CC3)cc2c1N(C)c1nc(-c2ccc(F)cc2)c(C#N)s1 [US11591342, Compound S-0043]
3 | 5.53 | CCn1nc2cnc(N3CCN(CC(=O)N4CC(O)C4)CC3)cc2c1N(C)c1nc(-c2ccc(F)cc2)c(C#N)s1 [US11591342, Compound S-0044]
